Source: patent US20230000943A1, “METHOD OF INDUCING SYNAPTOGENESIS BY ADMINISTERING ANGIOTENSIN AND ANALOGUES THEREOF” (Synaptogenix, Inc., priority 2021, published 2023)
Like-named read-outs stand apart in the source and are kept apart here.

Tests used:
[1] = test system: squamous cell carcinoma and melanoma; conditions: used topically; cited from earlier work
[2] = biological target: PKC; conditions: cited from earlier work
[3] = biological target: PKC; conditions: competes with [3H] phorbol dibutyrate; read-out: Ki for binding to PKC; cited from earlier work
[4] = test system: NCI 60 cell line; conditions: NCI 60 cell line screen; cited from earlier work
[5] = test system: BDNF; test: Mouse dosing study: brain BDNF levels; assay type: in vivo; conditions: mice
Source text: (§1) Mouse studies may be performed using an angiotensin, as described above, in accordance with the protocol described below. The following metrics may be used to evaluate dosing regimens: induction of brain postsynaptic anchoring protein PSD-95, upregulation of BDNF levels in brain, upregulation of HGF levels in brain, minimal downregulation of PKC-ε levels, and elevation of brain and plasma concentrations of the angiotensin. Groups of 2-3 mice may be formed and housed in an approved research animal facility. Water may be given ad libitum. A first study involves three groups of mice with animals in each group dosed weekly for 1, 2, 3, or 6 consecutive weeks. Each group has its own control group containing the same number of mice. For example, mice in the first, second and third groups may receive an intravenous (i.v.) injection of 10 μg/m^2, 15 μg/m^2, and 25 μg/m^2 dose of an angiotensin. For each dose, mice in that group may receive a single injection of the angiotensin weekly for a predetermined number of consecutive weeks. Following dosing, mice are sacrificed, and the blood and brain of each animal is collected for further analysis.

[6] = test system: PSD-95; test: Mouse dosing study: PSD-95 levels; assay type: in vivo, mice; conditions: 25 μg/m^2 i.v. once per week, after three weeks
Source text: as §1

[7] = design: species or system mice; conditions: mouse, in vivo, iv
Source text: as §1

[8] = biological target: protein kinase C; conditions: specifically the (−)-enantiomer; read-out: potency (EC50); cited from earlier work
[9] = A-ring bryologs, read-out: affinity for PKC

For C/C=C(/C)C(=O)O[C@H]1C(C)=C[C@]23C(=O)[C@@H](C=C(CO)[C@@H](O)[C@]12O)[C@H]1[C@@H](C[C@H]3C)C1(C)C [Ingenol-3-angelate], the antitumor activity [1] is listed as “exhibits antitumor activity”.

In the case of CCCCCCCC(=O)O[C@H]1/C(=C/C(=O)OC)CC2C[C@H](CO)OC(=O)C[C@H](O)C[C@@H]3CCC[C@H](C[C@@H]4CCO[C@H](/C=C/C(C)(C)[C@]1(O)O2)O4)O3 [Analog 1], the Ki ([2]; Table 1 Bryologs, read-out: PKC Affin) is given as 0.25 nM and the “affinity for PKC (in words)” value ([2]; compared with Bryostatin-1 and the other bryologs) is given as “highest affinity for PKC”.

In the case of CC1=C[C@]23C(=O)[C@@H](C=C(COC(=O)c4ccccc4)[C@@H](O)[C@]2(O)[C@H]1OC(=O)c1ccccc1)[C@H]1[C@@H](C[C@H]3C)C1(C)C [Ingenol 3,20-dibenzoate], the Ki [3] is given as 240 nM.

For CC1=CC[C@H](C)C(C)(C)[C@@H]1/C=C/C(C)=C/CC[C@@]1(CO)[C@H](CCCO)/C(=C(/C)C=O)CC[C@]1(C)O [Iripallidal], the “GI50 (concentration required to inhibit growth by 50%)” value [4] is listed as “micromolar to nanomolar range”.

In the case of CCCCCCCC(=O)OC1C(=CC(=O)OC)CC2CC(CO)OC(=O)CC(O)CCOC(C(C)(C)C)CC3CCOC(C=CC(C)(C)C1(O)O2)O3 (stereo not shown) [bryolog 3], the Ki [2, 9] is listed as 6.5 nM.

With angiotensin the “brain BDNF levels” value ([5]; 15 μg/m^2 for three consecutive weeks) was “some increase”, the “brain BDNF levels” value ([5]; 25 μg/m^2) was “maximum increase” and the “brain BDNF levels” value ([5]; 25 μg/m^2, 3 on/3 off/3 on regimen) was “remain elevated”. The “brain BDNF levels” value ([5]; after three consecutive weekly doses at 25 μg/m^2) was “highest level”, the “PSD-95 in brain and blood samples” value [6] was “higher amounts of PSD-95” and the “concentration in brain relative to plasma” value [7] was “less than its concentration in plasma”. For the same compound, the “crossing of the blood-brain-barrier” value [7] was “crosses the BBB”.

In the case of CCCCCCCC(=O)OC1C(=CC(=O)OC)CC2CC(CO)OC(=O)CC(O)CCOC(CCCc3ccc(Br)cc3)CC3CCOC(C=CC(C)(C)C1(O)O2)O3 (stereo not shown) [bryolog 5], the Ki [2, 9] is given as 1.9 nM.

In the case of CCCCCCCC(=O)OC1C(=CC(=O)OC)CC2CC(CO)OC(=O)CC(O)CCOC(c3ccccc3)CC3CCOC(C=CC(C)(C)C1(O)O2)O3 (stereo not shown) [bryolog 4], the Ki [2, 9] is listed as 2.3 nM.

For CCCCCCCCc1ccc2c3c(c[nH]c13)C[C@@H](CO)NC(=O)[C@H](C(C)C)N2C [octylindolactam V, Octylindolactam V], the EC50 [8] is listed as 29 nM.
